What all share (experiment): NCI anticancer screen, dose series, 48 h
In assay [1] the test system is HCT-15.
Assay [2] deals with UACC-257.
The subject of assay [3] is RPMI-8226.
Assay [4] concerns HT-29.
For assay [5], the system named is OVCAR-8.
In assay [6] the test system is NCI-H460.
The subject of assay [7] is OVCAR-5.
In assay [8] the test system is NCI-H226.
Assay [9] concerns ACHN.
The test system of assay [10] is UACC-62.
The subject of assay [11] is SK-MEL-2.
In assay [12] the test system is EKVX.
In assay [13] the test system is TK-10.
Assay [14] has as its system CAKI-1.
Assay [15] deals with SNB-19.
Assay [16] has as its system T47D.
Assay [17] has as its system MDA-MB-435.
Assay [18] deals with Hs-578T.
The test system of assay [19] is MDA-MB-231.

Here are results for 12 compounds from ChEMBL document CHEMBL1201862, “PubChem BioAssay data set” (2004).

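96-well plates; 48 h exposure; 5 concentrations. Endpoints by linear interpolation between flanking doses. Not reached: highest tested concentration assigned. GI50 = concentration required for 50% inhibition of growth.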 Active and inactive are the calls of the source. Rule as the data show it: active = GI50 up to about 1.1 µM and inactive = higher. Some results are limits rather than exact numbers.

For the compound `c1ccc(OC2=NC3=S(S2)SC(Oc2ccccc2)=N3)cc1`, the GI50 is 18.9 µM in assay [1]; 16.7 µM (inactive) in assay [2]; 4.83 µM (inactive) in assay [3]; 21.4 µM (inactive) in [4]; 22.2 µM (inactive) in assay [5]; 30.2 µM (inactive) in assay [6]. Further, the GI50 is 20.5 µM (inactive) in assay [7]; 24.3 µM (inactive) in assay [8]; 19.2 µM (inactive) in [9]; 18.9 µM (inactive) in [10]; 13.6 µM (inactive) in assay [11]; 21.5 µM (inactive) in [12]. Further, the values for the GI50 in assay [13], in assay [14] and in assay [15] were 17.8 µM (inactive), 17.7 µM (inactive) and 20.4 µM (inactive), respectively.

In the case of `COC(=O)NC1(NC(=O)OC)NC(=O)c2cc(OC)c(OC)cc2N1`, the GI50 was 13.2 µM in [1]; 45 µM (inactive) in [2]; 32.5 µM (inactive) in assay [3]; 65.6 µM (inactive) in assay [5]; 30.7 µM (inactive) in assay [6]; > 100 µM (inactive) in assay [7]. For the same compound, the GI50 is 39.4 µM (inactive) in assay [16]; 64 µM (inactive) in [9]; 30.1 µM (inactive) in assay [10]; 19 µM (inactive) in assay [11]; 89.3 µM (inactive) in [12]; 2.97 µM (inactive) in assay [17]. Also, the GI50 in [13] is > 100 µM (inactive); in [18], 29.4 µM (inactive); in [14], 19.2 µM (inactive); in assay [15], 55.5 µM (inactive).

As to `CC(N)Cc1cccc(C(F)(F)F)c1` (stereo unspecified), the GI50 in assay [1] is greater than 100 µM; in assay [2], > 100 µM (inactive); in assay [3], > 100 µM (inactive); in assay [4], > 100 µM (inactive); in assay [5] it was > 100 µM (inactive); in assay [6] it was > 100 µM (inactive). Moreover, the GI50 in assay [7], in [8], in [9], in [10], in assay [11] and in assay [12] was > 100 µM (inactive) each time. Also, the GI50 in assay [13], in assay [14] and in assay [15] was > 100 µM (inactive) throughout.

Turning to `CCC(C)(O)c1cn(-c2ccc(S(=O)(=O)O)cc2)nn1` (stereo unspecified), the GI50 is greater than 100 µM in assay [1]; > 100 µM (inactive) in assay [2]; > 100 µM (inactive) in assay [3]; > 100 µM (inactive) in assay [4]; > 100 µM (inactive) in assay [5]; > 100 µM (inactive) in assay [6]. Further, the GI50 in [7], in [8], in assay [9], in assay [10], in [11] and in assay [12] was > 100 µM (inactive) each time. Moreover, the GI50 in assay [13], in assay [14] and in assay [15] was > 100 µM (inactive) each time.

For the compound `COc1cc(C(=O)Oc2c(C(C)=O)sc3c2c(=O)n(-c2ccccc2)c(=S)n3-c2ccccc2)cc(OC)c1OC`, the GI50 in assay [1] is 22.2 µM; in assay [2], 28.1 µM (inactive); in [3] it was 27 µM (inactive); in assay [19] it was 25.9 µM (inactive); in [4], 11 µM (inactive); in assay [5] it was 18.8 µM (inactive). In addition, the GI50 in [6] was 12.6 µM (inactive); in [7] it was 17.5 µM (inactive); in [8], 3.86 µM (inactive); in [16], 26.5 µM (inactive); in assay [9], 16.6 µM (inactive); in [10], 23.9 µM (inactive). Moreover, the GI50 is 18.7 µM (inactive) in assay [12]; 22.5 µM (inactive) in assay [17]; 38.9 µM (inactive) in assay [13]; 19.4 µM (inactive) in assay [18]; 33.9 µM (inactive) in assay [14]; 24.7 µM (inactive) in assay [15].

As for `Clc1cc(-c2csc(Cl)c2)cs1`, the GI50 is greater than 100 µM in assay [1]; > 100 µM (inactive) in assay [2]; > 100 µM (inactive) in [3]; > 100 µM (inactive) in assay [19]; > 100 µM (inactive) in assay [4]; > 100 µM (inactive) in [5]. Besides, the GI50 in assay [6], in [7], in assay [8], in assay [9], in assay [10] and in [11] was > 100 µM (inactive) throughout. Moreover, the GI50 in [12], in assay [17], in assay [13], in assay [18], in [14] and in [15] was > 100 µM (inactive) each time.

Take `CC(C)CC(NC(=O)C(C)(CI)Cc1ccccc1)C(=O)Nc1ccccc1` (stereo unspecified): the GI50 in assay [1] was greater than 100 µM; in assay [2], > 100 µM (inactive); in [3], > 100 µM (inactive); in assay [19], > 100 µM (inactive); in [5] it was > 100 µM (inactive); in assay [6], > 100 µM (inactive). In addition, the GI50 in assay [7], in assay [8], in assay [9], in assay [10], in assay [11] and in assay [12] was > 100 µM (inactive) throughout. Further, the GI50 in assay [17], in [13], in assay [14] and in assay [15] was > 100 µM (inactive) throughout.

Consider `O=C1C(Cl)C(c2cccc([N+](=O)[O-])c2)N1n1cnc2ccccc2c1=O` (stereo unspecified), for which the GI50 was greater than 100 µM in [1]; 55.2 µM (inactive) in assay [2]; 42.3 µM (inactive) in assay [3]; > 100 µM (inactive) in [4]; > 100 µM (inactive) in [5]; 50.9 µM (inactive) in assay [6]. The GI50 in assay [7] was 58.5 µM (inactive); in assay [8] it was > 100 µM (inactive); in [9], > 100 µM (inactive); in [10], > 100 µM (inactive); in assay [11], > 100 µM (inactive); in [12], > 100 µM (inactive). Besides, the GI50 was > 100 µM (inactive) in assay [13], 91.2 µM (inactive) in assay [14] and > 100 µM (inactive) in assay [15].

For `C=C(C(N)=O)c1ccc([N+](=O)[O-])o1`, the GI50 is 9.02 µM in assay [1]; 8.51 µM (inactive) in assay [2]; 13.8 µM (inactive) in [19]; 11.9 µM (inactive) in [4]; 2.9 µM (inactive) in assay [5]; 19.9 µM (inactive) in assay [6]. Further, the GI50 is 18.7 µM (inactive) in assay [7]; 20.3 µM (inactive) in assay [8]; 20.5 µM (inactive) in assay [16]; 2.89 µM (inactive) in [9]; 7.03 µM (inactive) in [10]; 5.93 µM (inactive) in [11]. Besides, the GI50 in assay [12] is 18.1 µM (inactive); in [17], 2.56 µM (inactive); in assay [13], 14.1 µM (inactive); in assay [18], 36.4 µM (inactive); in assay [14], 3.4 µM (inactive); in assay [15] it was 37.1 µM (inactive).

Take `COc1cc2oc(=O)cc(C)c2c(OC)c1O`: the GI50 in assay [1] is greater than 100 µM; in [2], > 100 µM (inactive); in [3] it was > 100 µM (inactive); in assay [19], > 100 µM (inactive); in [4], > 100 µM (inactive); in assay [5], > 100 µM (inactive). In addition, the GI50 in assay [7], in assay [8], in assay [9], in assay [10], in assay [11] and in assay [12] was > 100 µM (inactive) throughout. Also, the GI50 in assay [17] was > 100 µM (inactive); in assay [13], > 100 µM (inactive); in [18], 25.2 µM (inactive); in [15], > 100 µM (inactive).

With `CC(O)CCCOC(c1ccccc1)(c1ccccc1)c1ccccc1` (stereo unspecified), the GI50 in [1] was 15.4 µM; in [2], 16.3 µM (inactive); in assay [3], 15.2 µM (inactive); in assay [19], 17.3 µM (inactive); in [4], 13.2 µM (inactive); in assay [5], 14.7 µM (inactive). Besides, the GI50 in assay [6] was 16.1 µM (inactive); in assay [7] it was 16.7 µM (inactive); in [8] it was 16.1 µM (inactive); in [9], 14.6 µM (inactive); in [10] it was 13.9 µM (inactive); in assay [11], 15.1 µM (inactive). Besides, the GI50 is 14.8 µM (inactive) in assay [12]; 16.5 µM (inactive) in [17]; 16.6 µM (inactive) in [13]; 18.7 µM (inactive) in [18]; 16 µM (inactive) in [14]; 16 µM (inactive) in assay [15].

With `C=C(C)C(O)CCC1(C)C=Cc2c(c(C)cc3c2[nH]c2ccccc23)O1` (stereo unspecified), the GI50 is 4.26 µM in [1]; 8.17 µM (inactive) in assay [2]; 9.77 µM (inactive) in assay [3]; 3.49 µM (inactive) in [19]; 4.72 µM (inactive) in assay [4]; 9.08 µM (inactive) in assay [5]. In addition, the GI50 in assay [6] was 5.42 µM (inactive); in assay [7], 4.2 µM (inactive); in [8], 7.01 µM (inactive); in [16], 7.83 µM (inactive); in assay [9], 4.86 µM (inactive); in [10] it was 4.8 µM (inactive). Moreover, the GI50 was 8.41 µM (inactive) in assay [17], > 25 µM (inactive) in [13], 3.17 µM (inactive) in assay [18] and 15.2 µM (inactive) in assay [15].
